According to paper PMC3914206:

Key:
Type in all cases: binding
panel of 442 kinases [1] = molecular target: T1, panel of 442 kinases (Homo sapiens, UniProt P30291); conditions: kinase WEE1; compound concentration 10 µM
T1 construct: purchased KINOMEscan
From the text: (§1) We assessed the selectivity of members of this scaffold using the KINOMEscan methodology across a near comprehensive panel of 442 kinases [[18,27]].

panel of 442 kinases [2] = molecular target: T2, panel of 442 kinases (Homo sapiens, UniProt P53667); conditions: Compound Concentration 10 µM
T2 construct: purchased KINOMEscan
From the text: as §1

panel of 442 kinases [3] = molecular target: T3, panel of 442 kinases (Mycobacterium tuberculosis, UniProt P9WI81); conditions: Compound Concentration 10 µM
T3 construct: purchased KINOMEscan
From the text: as §1

panel of 442 kinases [4] = molecular target: T4, panel of 442 kinases (Homo sapiens, UniProt Q15759); conditions: Compound Concentration 10 µM
T4 construct: purchased KINOMEscan
From the text: as §1

T2 sequence (P53667 whole entry): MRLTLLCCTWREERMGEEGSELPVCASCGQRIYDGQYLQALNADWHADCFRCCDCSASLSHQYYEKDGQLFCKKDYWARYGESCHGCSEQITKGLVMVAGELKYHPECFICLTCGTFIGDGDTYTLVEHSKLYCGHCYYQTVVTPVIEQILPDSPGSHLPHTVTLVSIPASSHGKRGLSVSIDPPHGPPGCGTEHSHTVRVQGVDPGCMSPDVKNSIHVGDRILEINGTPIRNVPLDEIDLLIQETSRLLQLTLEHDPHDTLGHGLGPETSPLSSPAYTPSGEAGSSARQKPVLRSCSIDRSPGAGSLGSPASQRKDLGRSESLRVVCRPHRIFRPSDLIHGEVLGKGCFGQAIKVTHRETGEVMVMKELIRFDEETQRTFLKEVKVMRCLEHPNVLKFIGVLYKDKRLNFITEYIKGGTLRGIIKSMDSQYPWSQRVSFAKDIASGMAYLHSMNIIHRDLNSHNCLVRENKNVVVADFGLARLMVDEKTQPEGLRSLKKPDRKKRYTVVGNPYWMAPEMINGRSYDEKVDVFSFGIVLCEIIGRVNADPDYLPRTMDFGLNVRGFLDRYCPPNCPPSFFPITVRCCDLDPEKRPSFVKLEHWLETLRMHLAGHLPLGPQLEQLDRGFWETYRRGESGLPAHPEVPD
T1 sequence (P30291 whole entry): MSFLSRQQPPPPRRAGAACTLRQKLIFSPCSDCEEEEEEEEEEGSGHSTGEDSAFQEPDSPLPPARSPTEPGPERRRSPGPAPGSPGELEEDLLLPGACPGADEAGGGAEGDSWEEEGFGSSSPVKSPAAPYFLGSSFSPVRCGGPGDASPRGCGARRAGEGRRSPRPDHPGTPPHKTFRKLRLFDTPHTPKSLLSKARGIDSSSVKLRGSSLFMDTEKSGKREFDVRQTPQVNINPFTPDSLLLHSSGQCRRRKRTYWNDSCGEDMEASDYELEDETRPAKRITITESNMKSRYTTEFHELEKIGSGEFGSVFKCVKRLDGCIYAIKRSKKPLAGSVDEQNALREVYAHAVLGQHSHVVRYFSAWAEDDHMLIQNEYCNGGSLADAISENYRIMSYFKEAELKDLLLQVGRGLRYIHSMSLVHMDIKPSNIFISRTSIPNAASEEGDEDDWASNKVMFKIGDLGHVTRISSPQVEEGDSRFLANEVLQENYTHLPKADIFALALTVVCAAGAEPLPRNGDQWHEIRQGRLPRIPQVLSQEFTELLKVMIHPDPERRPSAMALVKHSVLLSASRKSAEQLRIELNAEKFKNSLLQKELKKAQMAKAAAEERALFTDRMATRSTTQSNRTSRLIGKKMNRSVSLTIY
T4 sequence (Q15759 whole entry): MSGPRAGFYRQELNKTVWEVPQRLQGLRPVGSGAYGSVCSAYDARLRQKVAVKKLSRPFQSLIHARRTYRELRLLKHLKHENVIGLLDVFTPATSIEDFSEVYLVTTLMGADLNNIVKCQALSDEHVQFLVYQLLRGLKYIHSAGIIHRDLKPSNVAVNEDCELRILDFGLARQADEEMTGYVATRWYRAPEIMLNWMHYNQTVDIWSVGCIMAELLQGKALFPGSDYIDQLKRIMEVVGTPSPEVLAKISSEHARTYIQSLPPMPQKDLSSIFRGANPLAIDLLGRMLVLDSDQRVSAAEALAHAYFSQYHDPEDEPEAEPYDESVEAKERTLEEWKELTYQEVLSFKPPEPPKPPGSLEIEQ
T3 sequence (P9WI81 whole entry): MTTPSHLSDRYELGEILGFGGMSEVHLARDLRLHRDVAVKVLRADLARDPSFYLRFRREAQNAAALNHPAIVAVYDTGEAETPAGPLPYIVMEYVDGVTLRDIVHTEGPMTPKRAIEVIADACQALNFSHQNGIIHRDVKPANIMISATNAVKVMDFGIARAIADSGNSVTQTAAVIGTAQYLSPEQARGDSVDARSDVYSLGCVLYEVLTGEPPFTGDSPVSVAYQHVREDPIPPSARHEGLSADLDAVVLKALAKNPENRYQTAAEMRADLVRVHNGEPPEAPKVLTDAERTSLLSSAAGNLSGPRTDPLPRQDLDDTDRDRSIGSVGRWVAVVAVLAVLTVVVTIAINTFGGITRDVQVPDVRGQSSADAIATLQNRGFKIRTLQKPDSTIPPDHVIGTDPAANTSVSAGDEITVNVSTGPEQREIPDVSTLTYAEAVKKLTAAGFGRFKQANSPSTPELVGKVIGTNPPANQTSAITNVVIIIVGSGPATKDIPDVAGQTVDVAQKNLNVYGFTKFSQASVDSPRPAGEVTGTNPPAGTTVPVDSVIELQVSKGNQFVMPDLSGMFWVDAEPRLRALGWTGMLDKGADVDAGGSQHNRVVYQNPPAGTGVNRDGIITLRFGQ

COc1cc(C(=O)N2CCC(N3CCN(C)CC3)CC2)ccc1Nc1ncc2c(n1)N(C1CCCC1)c1ccccc1C(=O)N2C [Compound 25, 11-cyclopentyl-2-((2-methoxy-4-(4-(4-methylpiperazin-1-yl)piperidine-1-carbonyl)phenyl)amino)-5-methyl-5H-benzo[e]pyrimido[5,4-b][1,4]diazepin-6(11H)-one]
% Ctrl, WEE1 (panel of 442 kinases [1]): 98 % Ctrl | KINOMEscan: LIMK1 (panel of 442 kinases [2]): 93 | KINOMEscan: PKNB(M.tuberculosis) (panel of 442 kinases [3]): 100 | KINOMEscan: p38-beta (panel of 442 kinases [4]): 56

COc1cc(C(=O)N2CCC(N3CCN(C)CC3)CC2)ccc1Nc1ncc2c(n1)N1CCc3cccc(c31)C(=O)N2C [Compound 24]
% Ctrl, WEE1 (panel of 442 kinases [1]): 82 % Ctrl | KINOMEscan: PKNB(M.tuberculosis) (panel of 442 kinases [3]): 98 | KINOMEscan: p38-beta (panel of 442 kinases [4]): 56

COc1cc(C(=O)N2CCC(N3CCN(C)CC3)CC2)ccc1Nc1ncc2c(n1)N(C)c1ccccc1C(=O)N2C [15 (LRRK2-IN-1)]
% Ctrl, WEE1 (panel of 442 kinases [1]): 100 % Ctrl | KINOMEscan: LIMK1 (panel of 442 kinases [2]): 95 | KINOMEscan: PKNB(M.tuberculosis) (panel of 442 kinases [3]): 100 | KINOMEscan: p38-beta (panel of 442 kinases [4]): 60

CCOc1cc(C(=O)N2CCC(N3CCN(C)CC3)CC2)ccc1Nc1ncc2c(n1)N(C1CCCC1)c1ccccc1C(=O)N2C [Compound 26]
% Ctrl, WEE1 (panel of 442 kinases [1]): 100 % Ctrl | KINOMEscan: LIMK1 (panel of 442 kinases [2]): 100 | KINOMEscan: PKNB(M.tuberculosis) (panel of 442 kinases [3]): 96 | KINOMEscan: p38-beta (panel of 442 kinases [4]): 81
